Patent publication US8309121B2, “Dermatological compositions comprising avermectin nanocapsules” (Galderma S.A., priority 2006, dated 2012)

Tests used:
[1] = in ceteareth-25, ceteareth-6, PEG-8-distearate, PEG-8-stearate, PEG-660-OH-stearate, PEG-4000, polyoxyethylene-10, glycerol monostearate S/E, propylene glycol dicaprylate, cetearyl octanoate, polyglycerol-3-diolate, C18-C36 triglycerides, Gamma cyclodextrin, soybean lecithin, cholesterol, stearic acid; cited from earlier work
[2] = Solubility of ivermectin in various excipients; format: physicochemical
Text: (§1) There are numerous excipients used in the formulation of emulsions or liposomes which result in degradation of ivermectin. The Table below presents the results of tests of stability and solubility of ivermectin in various excipients: […]

[3] = Stability of ivermectin in various excipients; format: physicochemical; settings: for T 1 month 40° C. content / T 1 month Tambient content / T 3 months 40° C. content / T 3 months Tambient content: T0 in mg/g; for T 1 month 40° C. (% in brackets) / T 1 month Tambient (% in brackets) / T 3 months 40° C. (% in brackets) / T 3 months Tambient (% in brackets): relative to T0
Text: as §1

[4] = cited from earlier work
[5] = in Labrafac Hydro WL1219 (caprylic/capric triglyceride PEG-4 esters)
[6] = in Mygliol 812 (medium-chain triglycerides of caprylic and capric acids)
[7] = in Solutol HS15 (PEG-15 hydroxystearate)
[8] = in Labrafac Hydro WL1219, 1 month
[9] = in Lipoid S75-3 + benzyl alcohol, 1 month
[10] = in Lipoid S75-3 + benzyl alcohol
[11] = in Ph90H + benzyl alcohol, 1 month

ivermectin
Stability in lipophilic excipients (in words) [1]: degradation | Solubility max ([2]; in Benzyl alcohol): 32.8 mg/g | Solubility max ([2]; in Benzyl benzoate): 44.2 mg/g | Solubility max ([2]; in Crodamol DA): 94.2 mg/g | Solubility max [2, 5]: 70 mg/g | Solubility max ([2]; in Miglyol 812): 17.9 mg/g | Solubility (in words) [2, 6]: relatively low solubility | Solubility max [2, 7]: 10.8 mg/g | Degradation by hydrogenated lecithins (in words) ([3]; hydrogenated lecithins, studies of Example 1): do not degrade | T 1 month 40° C. content ([3]; in Benzyl alcohol, 1 month): 9.7 | T 1 month 40° C. (% in brackets) ([3]; in Benzyl alcohol, 1 month): (98%) | T 1 month Tambient content ([3]; in Benzyl alcohol, 1 month): 9.8 | T 1 month Tambient (% in brackets) ([3]; in Benzyl alcohol, 1 month): (99%) | T0 content ([3]; in Benzyl alcohol): 9.9 mg/g | Stability (in words) ([3]; in Crodamol DA): Stable over 1 month | T0 content [3, 5]: 9.0 mg/g | T 1 month 40° C. content [3, 8]: 6.7 | T 1 month 40° C. (% in brackets) [3, 8]: (75%) | T 1 month Tambient content [3, 8]: 8.5 | T 1 month Tambient (% in brackets) [3, 8]: (95%) | T 3 months 40° C. content ([3]; in Labrafac Hydro WL1219): 4.2 | T 3 months 40° C. (% in brackets) ([3]; in Labrafac Hydro WL1219): (47%) | T 3 months Tambient content ([3]; in Labrafac Hydro WL1219): 6.3 | T 3 months Tambient (% in brackets) ([3]; in Labrafac Hydro WL1219): (70%) | T0 content ([3]; in Labrasol (PEG-8 caprylic/capric glycerides)): 8.1 mg/g | T 1 month 40° C. content ([3]; in Labrasol, 1 month): 7.9 | T 1 month 40° C. (% in brackets) ([3]; in Labrasol, 1 month): (98%) | T 1 month Tambient content ([3]; in Labrasol, 1 month): 8.1 | T 1 month Tambient (% in brackets) ([3]; in Labrasol, 1 month): (100%) | T 3 months 40° C. content ([3]; in Labrasol): 5.6 | T 3 months 40° C. (% in brackets) ([3]; in Labrasol): (69%) | T 3 months Tambient content ([3]; in Labrasol): 8.1 | T 3 months Tambient (% in brackets) ([3]; in Labrasol): (100%) | T 1 month 40° C. content [3, 9]: 9.5 | T 1 month 40° C. (% in brackets) [3, 9]: (101%) | T 1 month Tambient content [3, 9]: 9.5 | T 1 month Tambient (% in brackets) [3, 9]: (101%) | T 3 months 40° C. content [3, 10]: 9.7 | T 3 months 40° C. (% in brackets) [3, 10]: (103%) | T 3 months Tambient content [3, 10]: 9.2 | T 3 months Tambient (% in brackets) [3, 10]: (98%) | T0 content [3, 10]: 9.4 mg/g | T 1 month 40° C. content ([3]; in Miglyol 812, 1 month): 8.2 | T 1 month 40° C. (% in brackets) ([3]; in Miglyol 812, 1 month): (94%) | T 1 month Tambient content ([3]; in Miglyol 812, 1 month): 8.3 | T 1 month Tambient (% in brackets) ([3]; in Miglyol 812, 1 month): (95%) | T 3 months 40° C. content ([3]; in Miglyol 812): 8.4 | T 3 months 40° C. (% in brackets) ([3]; in Miglyol 812): (96%) | T 3 months Tambient content ([3]; in Miglyol 812): 8.3 | T 3 months Tambient (% in brackets) ([3]; in Miglyol 812): (96%) | T0 content ([3]; in Miglyol 812): 8.7 mg/g | Stability (in words) [3, 6]: not perfectly stable | T0 content ([3]; in Ph90H (Phospholipon 90H) + benzyl alcohol): 9.25 mg/g | T 1 month 40° C. content [3, 11]: 9.5 | T 1 month 40° C. (% in brackets) [3, 11]: (103%) | T 1 month Tambient content [3, 11]: 9.7 | T 1 month Tambient (% in brackets) [3, 11]: (105%) | T0 content [3, 7]: 9.8 mg/g | degradation at 1 month ([3]; in Solutol HS15, 1 month): 28% | T 1 month 40° C. content ([3]; in Solutol HS15, 1 month): 7.1 | T 1 month 40° C. (% in brackets) ([3]; in Solutol HS15, 1 month): (72%) | T 1 month Tambient content ([3]; in Solutol HS15, 1 month): 9.4 | T 1 month Tambient (% in brackets) ([3]; in Solutol HS15, 1 month): (95%) | Stability in a hydrophilic medium (in words) ([4]; hydrophilic medium): degraded | solubility in water ([4]; water): 5 µg/mL
